The text below walks through data of patent US20200239561A1, “NODAL REGULATION OF CANCER DRUG RESISTANCE GENE” (TaiRx Inc., priority 2019, published 2020).

SMILES strings stand for the structures.

Test [1] has as its system Nodal protein. The test can be described thus: Western blot of Nodal protein (ProNodal) in acute lymphoblastic leukemia cell line REH. The test is classed as cell-based. The conditions noted are these: REH cells, 72 hr treatment. The source says:
Treatment of the cells for 72 hr with CVM-1125 reduced Nodal protein expression by 38%, while under the same treatment regimen the drug Ara-c reduced Nodal protein expression by 51%, Ws65 reduced Nodal protein by 90%, a combination of CVM-1125 plus WS65 reduced Nodal protein by 75% and Ara-c plus WS65 reduced Nodal protein by 69%.
(In general: Immunoblotting shows a protein as a band on a membrane.)

For test [2], the system named is Nodal protein. In words: Western blot of Nodal protein expression in SK-MEL28 melanoma cells. The test is classed as cell-based, human. The conditions noted are these: 72 hours treatment. The protocol: (§1) Human metastatic melanoma cell lines C8161, SK-MEL28 and A375SM-L1 and melanocytes were treated with anti-Nodal or anti-ABCA1 antibodies followed by secondary fluorescent antibodies. (A) Cells were viewed using a Zeiss Axioskop 2 microscope and photomicrographs taken comparing immunofluorescence staining of the melanoma cells versus melanocytes (negative control) and cells treated with secondary antibody only (antibody control; magnification 63×). All three aggressive melanoma cell lines express both Nodal and ABCA1 proteins. (B) Furthermore, whole cell protein lysates were prepared from the C8161, SK-MEL28 and A375SM-L1 cells and Western blot analysis verified the expression of both Nodal and ABCA1 proteins at their appropriate molecular weight equivalence. β-Actin protein was used to determine the equal loading of total protein per sample per lane on the Western blot.
(§2) (A) After 72 hr treatment with WS65, an anti-Nodal inhibitory antibody, there is a 94% reduction in Nodal protein expression and 55% reduction in the ABCA1 protein expression. […] Similar treatment with WS65 results in a 55% decrease in Nodal protein expression and 38% decrease in ABCA1 protein expression while treatment with both CVM-1125 and WS65 for 72 hr appears to synergistically reduce the expression of Nodal protein by 81% and ABCA1 protein by 99%.

A further test deals with ABCA1 protein. In words: Western blot of ABCA1 protein expression in SK-MEL28 melanoma cells. Type of test: cell-based, human. The conditions noted are these: 72 hours treatment. The protocol: as §1, §2
Another test concerns Nodal. The test can be described thus: Nodal in experimental TNBC models after doxorubicin. Conditions: three experimental TNBC models expressing high levels of Nodal.

On to `Nc1ccn([C@@H]2O[C@H](CO)[C@@H](O)[C@@H]2O)c(=O)n1` [Ara-c, reference compound], for which the “reduced Nodal protein expression” value in the test with Nodal protein [1] was 51%.

Take `COc1ccc2[nH]c(-c3cccc(F)c3)cc(=O)c2c1O` [CVM-1125]: in the test on Nodal protein [2], the “decrease in Nodal protein expression” value was found to be 19%. For the same compound, the “decrease in ABCA1 protein expression” value in the test with ABCA1 protein was 14%. In addition, the “reduced Nodal protein expression” value in the test with Nodal protein [1] was 38%.

In the case of `COc1cccc2c1C(=O)c1c(O)c3c(c(O)c1C2=O)C[C@@](O)(C(=O)CO)C[C@@H]3O[C@H]1C[C@H](N)[C@H](O)[C@H](C)O1` [doxorubicin], the “effect on the Nodal target” value in the test on Nodal is on record as “did not effectively diminish”.
